The values that follow come from PubChem BioAssay AID1259407 (Chemical Carcinogenesis Research Information System (CCRIS), 2018).

The data set concerns CCRIS mutagenicity, Ames/micronucleus/aberration tests. Put plainly: CCRIS mutagenicity studies.
The mark [1] stands for this setting: Test System: AMES SALMONELLA TYPHIMURIUM, Strain/Indicator: TA98, Metabolic Activation: NONE, Method: PREINCUBATION
[2] abbreviates: Test System: AMES SALMONELLA TYPHIMURIUM, Strain/Indicator: TA98, Metabolic Activation: NONE, Method: STANDARD PLATE.
Where [3] appears, read: Test System: AMES SALMONELLA TYPHIMURIUM, Strain/Indicator: TA98, Metabolic Activation: RAT, LIVER, S-9, AROCLOR 1254, Method: STANDARD PLATE.
The mark [4] stands for this setting: Test System: AMES SALMONELLA TYPHIMURIUM, Strain/Indicator: TA100, Metabolic Activation: NONE, Method: PREINCUBATION
The mark [5] stands for this setting: Test System: AMES SALMONELLA TYPHIMURIUM, Strain/Indicator: TA100, Metabolic Activation: NONE, Method: STANDARD PLATE.
Where [6] appears, read: Test System: AMES SALMONELLA TYPHIMURIUM, Strain/Indicator: TA100, Metabolic Activation: RAT, LIVER, S-9, AROCLOR 1254, Method: STANDARD PLATE.

Active and inactive are the calls of the source. No rule for the calls is given here.

In the case of `Cc1c(N(C)C)c(=O)n(-c2ccccc2)n1C`, the mutagenic call (Test System: AMES SALMONELLA TYPHIMURIUM, Strain/Indicator: TA97, Metabolic Activation: NONE, Method: STANDARD PLATE) was “inactive; negative”; the mutagenic call (Test System: AMES SALMONELLA TYPHIMURIUM, Strain/Indicator: TA97, Metabolic Activation: RAT, LIVER, S-9, AROCLOR 1254, Method: STANDARD PLATE) is “inactive; negative”; the mutagenic call (Test System: AMES SALMONELLA TYPHIMURIUM, Strain/Indicator: TA98, Metabolic Activation: GUINEA PIG, LIVER, S-9, PCB, Method: PREINCUBATION) was “inactive; negative”; the mutagenic call (Test System: AMES SALMONELLA TYPHIMURIUM, Strain/Indicator: TA98, Metabolic Activation: HAMSTER, LIVER, S-9, PCB, Method: PREINCUBATION) was “inactive; negative”; the mutagenic call (Test System: AMES SALMONELLA TYPHIMURIUM, Strain/Indicator: TA98, Metabolic Activation: MOUSE, LIVER, S-9, PCB, Method: PREINCUBATION) is “inactive; negative”; the mutagenic call under setting [1] was “inactive; negative”. Also, the mutagenic call is “inactive; negative” under setting [2]; “inactive; negative” under setting [3]; “inactive; negative” (Test System: AMES SALMONELLA TYPHIMURIUM, Strain/Indicator: TA98, Metabolic Activation: RAT, LIVER, S-9, PCB, Method: PREINCUBATION); “inactive; negative” (Test System: AMES SALMONELLA TYPHIMURIUM, Strain/Indicator: TA100(FR1), Metabolic Activation: NONE, Method: STANDARD PLATE); “inactive; negative” (Test System: AMES SALMONELLA TYPHIMURIUM, Strain/Indicator: TA100(FR1), Metabolic Activation: RAT, LIVER, S-9, PHENOBARBITAL AND 3-METHYLCHOLANTHRENE, Method: STANDARD PLATE); “inactive; negative” (Test System: AMES SALMONELLA TYPHIMURIUM, Strain/Indicator: TA100, Metabolic Activation: GUINEA PIG, LIVER, S-9, PCB, Method: PREINCUBATION). Moreover, the mutagenic call (Test System: AMES SALMONELLA TYPHIMURIUM, Strain/Indicator: TA100, Metabolic Activation: HAMSTER, LIVER, S-9, PCB, Method: PREINCUBATION) is “inactive; negative”; the mutagenic call (Test System: AMES SALMONELLA TYPHIMURIUM, Strain/Indicator: TA100, Metabolic Activation: MOUSE, LIVER, S-9, PCB, Method: PREINCUBATION) was “inactive; negative”; the mutagenic call under setting [4] is “inactive; negative”; the mutagenic call under setting [5] is “inactive; negative”; the mutagenic call under setting [6] is “inactive; negative”; the mutagenic call (Test System: AMES SALMONELLA TYPHIMURIUM, Strain/Indicator: TA100, Metabolic Activation: RAT, LIVER, S-9, PCB, Method: PREINCUBATION) was “inactive; negative”. For the same compound, the mutagenic call (Test System: AMES SALMONELLA TYPHIMURIUM, Strain/Indicator: TA100, Metabolic Activation: RAT, LIVER, S-9, PHENOBARBITAL AND 3-METHYLCHOLANTHRENE, Method: STANDARD PLATE) was “inactive; negative”; the mutagenic call (Test System: AMES SALMONELLA TYPHIMURIUM, Strain/Indicator: TA102, Metabolic Activation: NONE, Method: STANDARD PLATE) was “inactive; negative”; the mutagenic call (Test System: AMES SALMONELLA TYPHIMURIUM, Strain/Indicator: TA102, Metabolic Activation: RAT, LIVER, S-9, AROCLOR 1254, Method: STANDARD PLATE) is “inactive; negative”; the mutagenic call (Test System: AMES SALMONELLA TYPHIMURIUM, Strain/Indicator: TA104, Metabolic Activation: NONE, Method: STANDARD PLATE) was “inactive; negative”; the mutagenic call (Test System: AMES SALMONELLA TYPHIMURIUM, Strain/Indicator: TA104, Metabolic Activation: RAT, LIVER, S-9, AROCLOR 1254, Method: STANDARD PLATE) was “inactive; negative”; the mutagenic call (Test System: CHINESE HAMSTER V-79, Strain/Indicator: V-79/6-THIOGUANINE, Metabolic Activation: NONE) was “inactive; negative”. Besides, the mutagenic call was “inactive; negative” (Test System: CHINESE HAMSTER V-79, Strain/Indicator: V-79/6-THIOGUANINE, Metabolic Activation: RAT, LIVER, HEPATOCYTES); “inactive; negative” (Test System: CHINESE HAMSTER V-79, Strain/Indicator: V-79/OUABAIN, Metabolic Activation: NONE); “inactive; negative” (Test System: CHINESE HAMSTER V-79, Strain/Indicator: V-79/OUABAIN, Metabolic Activation: RAT, LIVER, HEPATOCYTES).
Turning to `CNC[C@H](O)c1ccc(O)c(O)c1`, the mutagenic call is “inactive; negative” (Test System: AMES SALMONELLA TYPHIMURIUM, Strain/Indicator: TA98, Metabolic Activation: HAMSTER, LIVER, S-9, AROCLOR 1254 (10%), Method: PREINCUBATION); “inactive; negative” under setting [1]; “inactive; negative” (Test System: AMES SALMONELLA TYPHIMURIUM, Strain/Indicator: TA98, Metabolic Activation: RAT, LIVER, S-9, AROCLOR 1254 (10%), Method: PREINCUBATION); “inactive; negative” (Test System: AMES SALMONELLA TYPHIMURIUM, Strain/Indicator: TA100, Metabolic Activation: HAMSTER, LIVER, S-9, AROCLOR 1254 (10%), Method: PREINCUBATION); “inactive; negative” under setting [4]; “inactive; negative” (Test System: AMES SALMONELLA TYPHIMURIUM, Strain/Indicator: TA100, Metabolic Activation: RAT, LIVER, S-9, AROCLOR 1254 (10%), Method: PREINCUBATION). The mutagenic call (Test System: AMES SALMONELLA TYPHIMURIUM, Strain/Indicator: TA1535, Metabolic Activation: HAMSTER, LIVER, S-9, AROCLOR 1254 (10%), Method: PREINCUBATION) is “inactive; negative”; the mutagenic call (Test System: AMES SALMONELLA TYPHIMURIUM, Strain/Indicator: TA1535, Metabolic Activation: NONE, Method: PREINCUBATION) is “inactive; negative”; the mutagenic call (Test System: AMES SALMONELLA TYPHIMURIUM, Strain/Indicator: TA1535, Metabolic Activation: RAT, LIVER, S-9, AROCLOR 1254 (10%), Method: PREINCUBATION) was “inactive; negative”; the mutagenic call (Test System: AMES SALMONELLA TYPHIMURIUM, Strain/Indicator: TA1537, Metabolic Activation: HAMSTER, LIVER, S-9, AROCLOR 1254 (10%), Method: PREINCUBATION) is “inactive; negative”; the mutagenic call (Test System: AMES SALMONELLA TYPHIMURIUM, Strain/Indicator: TA1537, Metabolic Activation: NONE, Method: PREINCUBATION) was “inactive; negative”; the mutagenic call (Test System: AMES SALMONELLA TYPHIMURIUM, Strain/Indicator: TA1537, Metabolic Activation: RAT, LIVER, S-9, AROCLOR 1254 (10%), Method: PREINCUBATION) is “inactive; negative”.
For `O=[N+]([O-])c1cc2c3c(ccc2c2ccccc12)[C@H](O)[C@@H](O)C=C3`, the mutagenic call runs as follows: under setting [1], “active; positive”; under setting [2], “inactive; negative”; (Test System: AMES SALMONELLA TYPHIMURIUM, Strain/Indicator: TA98, Metabolic Activation: RAT, LIVER, S-9, AROCLOR 1254, Method: PREINCUBATION) “inactive; negative”; under setting [3], “active; positive”; under setting [4], “active; positive”; under setting [5], “active; positive”. In addition, the mutagenic call is “active; positive” (Test System: AMES SALMONELLA TYPHIMURIUM, Strain/Indicator: TA100, Metabolic Activation: RAT, LIVER, S-9, AROCLOR 1254, Method: PREINCUBATION); “active; positive” under setting [6]; “inactive; negative” (Test System: CHINESE HAMSTER OVARY, Strain/Indicator: CHO-K1-BH4 (HGPRT)/6-THIOGUANINE, Metabolic Activation: NONE, Method: STANDARD PLATE); “active; positive” (Test System: CHINESE HAMSTER OVARY, Strain/Indicator: CHO-K1-BH4 (HGPRT)/6-THIOGUANINE, Metabolic Activation: RAT, LIVER, S-9, AROCLOR 1254, Method: STANDARD PLATE); “inactive; negative” (Test System: CHINESE HAMSTER OVARY, Strain/Indicator: CHO-UV5 (HGPRT)/6-THIOGUANINE, Metabolic Activation: NONE, Method: STANDARD PLATE); “active; positive” (Test System: CHINESE HAMSTER OVARY, Strain/Indicator: CHO-UV5 (HGPRT)/6-THIOGUANINE, Metabolic Activation: RAT, LIVER, S-9, AROCLOR 1254, Method: STANDARD PLATE).
